As usually defined, the IC50 is the concentration at which inhibition is half-maximal. A higher IC50 goes with weaker potency in that assay.

For data set [1], the system named is HCT8. Briefly: CellTiter-Glo Luminescent Cell Viability (cell proliferation) assay. It is filed as cell-based, human. Particulars: for IC50: Homo sapiens, HCT-8, Figure 5B-D, HCT8 (low GLI1 expression), unit inferred, x-axis in μM. As to the method:
(§1) Confluent monolayers of cells were trypsinized, and 10,000 cells suspended in 200 μl of medium were added to each well of the 96-well plate. […] The proliferation of the cells was determined using the CellTiter-Glo Luminescent Cell Viability Assay kit (Promega).
(Cellular ATP, detected with luciferase, serves as a proxy for viable cell number.)

The test system of data set [2] is HT29. Described as above. In kind it is cell-based, human. The procedure: as §1
The next data set relates to BRAF^V600E variant. Set-up: method as in PMID 26460303. Particulars: single agent, BRAF^V600E CRC patients; cited from earlier work.
Data set [3] relates to HT29. Briefly: Annexin V/PI flow cytometry, cell death/apoptosis. It is filed as cell-based. As to the method: (§2) Cells were treated, in duplicate, as described in the figure legends. At the end of treatment, cells were collected by trypsinization and incubated with Annexin V FITC (BD Biosciences) and PI (Sigma) prior to analysis using a FACS Calibur flow cytometer. Data was analyzed using FlowJo software.

For data set [4], the system named is HCT8. Briefly: Annexin V/PI flow cytometry, cell death. In kind it is cell-based, human. Particulars: 10 and 20 μM, 72 h; high GLI1 and NBS1. The procedure: as §2
For orientation: A flow cytometer gives signals particle by particle.

In data set [5] the test system is HCT116. Briefly: Annexin V/PI flow cytometry, cell death. In kind it is cell-based, human. Particulars: 10 and 20 μM, 72 h; low GLI1 and NBS1. The procedure:
as §2

The subject of the next data set is SW480. Briefly: Annexin V/PI flow cytometry, cell death. In kind it is cell-based, human. The conditions noted are these: 10 and 20 μM, 72 h; low GLI1 and NBS1. As to the method: as §2
The next data set concerns NBS1. Briefly: Western blot analysis of MRN components and damage/apoptosis markers in HT29 cells. Particulars: HT29, 20 μM, 72 h. In kind it is cell-based, human. As to the method: Cells were seeded in six-well plates and cultured until 70–80% confluent in 10% FBS-supplemented RPMI medium with L-glutamine and maintained at 37°C with 5% CO2. The cells were then treated with/without GANT61, SRI-38832, or 5-FU as indicated in the figure legends, and protein isolates were analyzed by Western blot. Briefly, 15 μg of protein was loaded and separated on a SDS-PAGE gel. Proteins were transferred to polyvinylidene difluoride (PVDF) membranes overnight. Membranes were washed in TBS-T, blotted in primary antibody overnight at 4°C, and subsequently washed and blotted with HRP-linked secondary antibody for 1 h. Membranes were developed and images were taken on an ImageQuant LAS 4000.
On the technique in general: In western blotting, separated proteins are transferred to a membrane and probed.

The next data set deals with CRC. The conditions noted are these: 5-FU and its combinational treatment (FOLFOX), in the clinic; cited from earlier work.
For data set [6], the system named is HCT116. Briefly: COMET assay, DNA damage by tail length. Particulars: 20 μM, 48 h. It is filed as cell-based, human. As to the method:
(§3) Cells were treated with/without GANT61 (20 μM), SRI-38832 (20 μM) or 5-FU (20 μM) for 48 h, subsequently trypsinized and washed in PBS before being added to preheated (37°C), low-melting point agarose. The solution was pipetted onto slides pre-coated with 1% agarose. The chilled slides were allowed to lyse for 40 min at 4°C in 2.5 M NaCl,100 mM EDTA (pH 10), 10 mM Tris Base, 1% SDS, 1% Triton X−100 prior to immersion in alkaline electrophoresis solution (300 mM NaOH, 1 mM EDTA, pH 13). After 30 min, slides were placed into a horizontal electrophoresis chamber for ~30 min (1 V/cm at 4°C). The slides were washed with deionized H2O to remove the alkaline buffer, dehydrated in 70% ice–cold EtOH and air-dried overnight. Slides were stained with SYBR-Green and examined by microscopy. Tail length (TL) was used to quantify the DNA damage. Image analysis and quantification has been performed with ImageJ.

In data set [7] the test system is HT29. Briefly: COMET assay, DNA damage by tail length. Particulars: 20 μM, 48 h. It is filed as cell-based, human. The procedure: as §3
The next data set has as its system NBS1 mRNA. Briefly: NBS1 mRNA qRT-PCR in HT29 cells. The conditions noted are these: GANT61 as early as 24 h post treatment. In kind it is cell-based, human. As to the method: Total RNA was extracted by Invitrogen™ PureLink™ RNA Mini Kit (Fisher scientific) and cDNAs were synthesized with the ThermoScript reverse transcriptional system. qRT-PCR was performed to assess the enrichment of the specific proteins along the NBS1 ORF using specific primer pairs: NBS1-primer-1-F:[…],NBS1-primer-1-R: […]. Human GAPDH cDNA was used as an internal control.

Another data set relates to MRN complex. Briefly: Confocal microscopy, NBS1 signal and NBS1/MRE11 co-localization in HT29 cells. It is filed as cell-based, human. The procedure:
Cells were plated at a density of 50,000 cells/well in six-well plates on coverslips and allowed to attach overnight. Media was removed and cells were treated with/without GANT61 (20 μM) for 48 h. Coverslips were removed and placed in a humidity chamber for fixation by absolute methanol for 10 min at 4°C. Cells were permeabilized with acetone for 1 min at 4°C. After washing with PBS × 3, cells were incubated with the diluted primary antibody overnight at 4°C. Cells were subsequently washed x 3 and incubated with appropriate secondary antibody at room temperature in the dark for 1 h. After washing with PBS, cell nuclei were stained with DAPI at RT for 5–10 min. Confocal images were acquired on a Nikon A1 laser confocal system with a Nikon Eclipse Ti microscope and a 60X Plan Apo objective. Lasers used were 405 nm for blue, 488 nm for green, and 561 nm for red. NIS Elements AR 4.5000 software was used to acquire Z-stacks of each channel sequentially to avoid spectral cross talk. Each slice was captured at a 0.15 μm step. Primary antibodies used were γH2AX (Millipore 1:200), NBS1 (Novus 1:200), and MRE11 (Cell Signaling 1:200). The co-localization index for specific foci and fluorescent intensity were calculated by ImageJ.

The target of the next data set is T1, GLI1 (Homo sapiens, UniProt P08151).
T1 construct: HT29, which express GLI1 and have high basal NBS1 expression; endogenous in cells; host or cells: HT29
T1 sequence (P08151 1-1106): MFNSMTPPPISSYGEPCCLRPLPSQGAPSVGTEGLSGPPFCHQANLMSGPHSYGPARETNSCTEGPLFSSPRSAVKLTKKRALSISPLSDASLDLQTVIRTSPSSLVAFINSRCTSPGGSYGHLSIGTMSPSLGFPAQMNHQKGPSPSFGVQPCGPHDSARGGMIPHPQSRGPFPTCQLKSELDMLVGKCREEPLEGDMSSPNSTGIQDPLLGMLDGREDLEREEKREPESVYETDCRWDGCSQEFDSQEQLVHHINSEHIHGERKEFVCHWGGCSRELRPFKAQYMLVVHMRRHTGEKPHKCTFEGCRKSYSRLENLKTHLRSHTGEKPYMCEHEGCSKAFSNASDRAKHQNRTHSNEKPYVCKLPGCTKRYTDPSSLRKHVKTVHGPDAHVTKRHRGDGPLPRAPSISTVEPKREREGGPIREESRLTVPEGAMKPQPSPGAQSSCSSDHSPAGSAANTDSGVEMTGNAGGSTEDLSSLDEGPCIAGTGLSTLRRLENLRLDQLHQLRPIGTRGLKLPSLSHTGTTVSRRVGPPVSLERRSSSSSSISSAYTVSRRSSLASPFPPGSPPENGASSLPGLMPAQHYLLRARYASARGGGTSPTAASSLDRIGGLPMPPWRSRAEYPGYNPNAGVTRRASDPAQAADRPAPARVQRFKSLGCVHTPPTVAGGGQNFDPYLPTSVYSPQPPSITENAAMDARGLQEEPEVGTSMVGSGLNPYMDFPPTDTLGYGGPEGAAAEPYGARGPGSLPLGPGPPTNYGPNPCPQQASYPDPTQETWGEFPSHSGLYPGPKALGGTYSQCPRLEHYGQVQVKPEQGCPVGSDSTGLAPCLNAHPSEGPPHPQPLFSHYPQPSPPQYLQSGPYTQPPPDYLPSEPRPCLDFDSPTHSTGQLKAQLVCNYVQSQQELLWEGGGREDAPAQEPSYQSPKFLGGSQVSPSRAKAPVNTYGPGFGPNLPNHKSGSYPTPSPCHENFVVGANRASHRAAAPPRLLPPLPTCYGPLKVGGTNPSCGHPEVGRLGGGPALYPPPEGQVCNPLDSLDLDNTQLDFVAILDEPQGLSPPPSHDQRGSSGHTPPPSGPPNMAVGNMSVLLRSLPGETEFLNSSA
Briefly: ChIP assay, GLI1 enrichment on the NBS1 promoter in HT29 cells. It is filed as cell-based. Particulars: HT29, 20 μM, 24 h. The procedure: HT29 cells (2 × 10^6) were seeded in T75 flasks. After overnight attachment, cells were treated with/without GANT61 (20 μM) or SRI-38832 (20 μM) for 24 h. The cells were trypsinized, washed with 1x PBS and fixed with 1.1% formaldehyde for 10 min at RT. Glycine (0.125 M) was added to stop the reaction. Cells were washed with PBS × 1 and lysed using the ChIP kit according to the manufacturer's instructions (Abcam, Ab500). To fragment the DNA, the cells were sonicated (30 s with 30 s cooling repeatedly for 15 cycles) to obtain fragmented DNA from 100 bp to 1 kB which was verified by agarose gel migration. Lysates were subjected to immunoprecipitation overnight at 4°C with 10 μg of anti-human antibodies for GLI1 (Novus) and Histone H3 for positive control provided by the Abcam ChIP kit. The complex was subsequently incubated with Dynabeads protein G (Invitrogen) for 2 h, 4°C, on a rotating wheel. Beads were washed for 10 min at 4°C with low salt buffer (2x TE, 150 mM NaCl, 1% Triton X-100, 0.1% SDS). Beads were then washed for 10 min at 4°C with high salt buffer (2x TE, 500 mM NaCl, 1% Triton X-100, 0.1% SDS). Next, beads were washed for 10 min at 4° with LiCl buffer (1x TE, 1% NP-40, 0.25 M LiCl, 1% deoxycholate). […]

Details of data set [8]: method as in PMID 29338454. Particulars: cited from earlier work.
Where [9] appears, read: Homo sapiens, HT-29, Figure 5B-D, HT29 (high GLI1 expression), unit inferred, x-axis in μM.
Setting [10] is: Homo sapiens, HT-29, Figure 5E, comparison on HT29, unit inferred.
The mark [11] stands for this setting: Homo sapiens, HT-29, HT29, values in running text.

Where “and” joins values, the source holds several entries; their conditions need not be identical. Identical values can stand only once. A value given as a limit tells only on which side of the number the result lay.

Turning to `CS(=O)(=O)c1ccc(C(=O)Nc2ccc(Cl)c(-c3ccccn3)c2)c(Cl)c1` [Vismodegib], the IC50 in the data set on HCT8 [1] is 80.5 µM; in the data set on HT29 [2] (setting [9]), 78.7 µM; with HT29 [2] (setting [10]), 81.4 µM; in the data set with HT29 [2] (setting [11]), approximately 80 µM. The “IC50 higher than GANT61” value in the data set with HT29 [2] (HT29 cells) turned out to be 4 fold.
For the compound `CCCS(=O)(=O)Nc1ccc(F)c(C(=O)c2c[nH]c3ncc(-c4ccc(Cl)cc4)cc23)c1F` [Vemurafenib], the response rate in the data set on BRAF^V600E variant is given as less than 5%.
Regarding `O=c1[nH]cc(F)c(=O)[nH]1` [5-FU, 5-fluorouracil], the “sensitivity to 5-FU treatment (cell death)” value was “resistant” in the data set with HT29 [3] (10 and 20 μM, 72 h, high GLI1 and NBS1); “resistant” in the data set on HCT8 [4]; “highly sensitive” in the data set on HCT116 [5]; “highly sensitive” with SW480. Moreover, the “apoptotic cells after 5-FU treatment” value with HT29 [3] (shGLI1 HT29 cells) is “about 60%”; with HT29 [3] (siNBS1 HT29 cells), “Over 40%”. The “dead cells after 5-FU treatment” value in the data set on HT29 [3] (vector HT29 cells (shGLI1 experiment)) worked out at 20%. Besides, in the data set with HCT8 [1] (HCT8 vs HT29), the “IC50 in HCT8 lower than in HT29” value is 5 fold. Further, the IC50 in the data set on HCT8 [1] was determined as 110 µM; with HT29 [2] (setting [9]) it was 528 µM; in the data set on HT29 [2] (setting [10]), 525 µM; in the data set with HT29 [2] (setting [11]), 625 µM. Further, the “expression of MRE11 and RAD50” value in the data set with NBS1 is on record as “did not result in any significant decreases”. Further, in the data set with NBS1, the “total NBS1 protein level” value is “did not result in any significant decreases”. Further, the overall response rate with CRC is recorded as 10–15%. For the same compound, in the data set on HCT116 [6], the “tail length relative to control” value is “about 3.5 time of control”. Besides, the “induction of DNA damage (comet assay)” value with HT29 [7] is reported as “did not”.
Turning to `CN(C)c1ccccc1CN1CCCN(Cc2ccccc2N(C)C)C1c1ccncc1` [GANT61], in the data set with HT29 [3] (GANT61 20 μM, 72 h, NBS1, S343A or S343E overexpressing HT29), the “cells rescued from apoptosis after GANT61 treatment by overexpression of any NBS1 vector” value is ~ 25%. The “apoptotic HT29 cells” value in the data set with HT29 [3] (time-course, 48 h of treatment) was approximately 40%. The “NBS1 mRNA level” value in the data set with NBS1 mRNA was “significantly decreased”. In the data set on HT29 [2] (Figure 6A, HT29, unit inferred), this compound came in with an IC50 of 22 µM. For the same compound, the IC50 with HT29 [2] (HT29, values in running text) was 21.9 µM and 21 µM. Further, in the data set on NBS1, the “expression of MRE11 and RAD50” value is “did not substantially alter”; the “total NBS1 protein level” value is “significantly decreased”; the γ-H2AX level entry is recorded as “increased levels”. Also, the “co-localization of NBS1 and MRE11” value in the data set on MRN complex (HT29, 20 μM) is listed as “significant decrease”. In the data set on MRN complex (HT29, 20 μM (24 h in text, 48 h in legend and method)), the “fluorescent signal of NBS1” value is recorded as “significantly reduced”. For the same compound, in the data set on HT29 [7], the “tail length relative to control” value was 2.5 time of control. In addition, at GLI1, the “GLI1 binding enrichment on the NBS1 promoter” value is reported as “significantly reduced”. Besides, the stability in vivo result in data set [8] was “hydrolyzed and loses biological activity in vivo”.

Source of the values: paper PMC7058788, “GLI1 Inhibitor SRI-38832 Attenuates Chemotherapeutic Resistance by Downregulating NBS1 Transcription in BRAF^V600E Colorectal Cancer” (Frontiers in Oncology, 2020).
